Values of other authors as cited in patent US20040166069A1, “Boosting Tyrosinase Inhibiting Activity of Skin Whitening and Sunscreen Compositions” (priority 2003, published 2004).

Test system: de-pigmentation
Details: relative to hydroquinone

SMILES | quantity required compared to the quantity of hydroquinone used to achieve a similar effect
OC[C@H]1O[C@@H](Oc2ccc(O)cc2)[C@H](O)[C@@H](O)[C@@H]1O [arbutin] | over 100 times
O=C1O[C@H]([C@@H](O)CO)C(O)=C1O [ascorbic acid] | 17 times
